Reference: patent US20080214662A1, “METHODS FOR THE TREATMENT OF DEMENTIA BASED ON APO E GENOTYPE” (priority 2002, published 2008)
Where “and” joins values, the source holds several entries; their conditions need not be identical. Equal values may be shown once.

Tested on: outpatients with probable AD
Assay: Pharmacogenetic analysis of ADAS-Cog response to rivastigmine by ApoE ε4 carrier status in Phase III trials ENA 713 B351 and ENA 713 B352
Assay type: in vivo, human
Design: key to mean of change from baseline in ADAS-Cog score at end of study: change from baseline in ADAS-Cog score points
Conditions: for response to treatment (non-deterioration, Table 7), share of individuals: rivastigmine greater than or equal to 6 mg; for 4-point improvement in the ADAS-Cog score (number of individuals) / Deterioration in the ADAS-Cog score (number of individuals) / No 4-point improvement in the ADAS-Cog score (number of individuals) / Non-deterioration in the ADAS-Cog score (number of individuals): 26 weeks
Description: A pharmacogenetic study of the effect of a patients ApoE ε4 genotype on the response to the ChEI, rivastigmine was conducted. Rivastigmine tartrate is an inhibitor of both AChE and BuChE and is commercially available under the name EXELON™ from Novartis Pharmaceuticals Corporation, East Hanover, N.J. Individuals In the trial were divided into treatment groups depending on the dose they received, namely <6 mg/day of rivastigmine, 6-12 mg/day of rivastigmine and placebo. Each treatment group was analyzed separately. Individuals in each treatment group were then classified as ApoE ε4 carriers or non-carriers based on the genotype data. A significant association (P=0.0071) between the ApoE ε4 carriers and the greater than 4 point improvement was found in the 6-12 mg group. In contrast, the association of the ApoE ε4 allele with non-deterioration in the study was not significant (P=0.1172) in the same group.
The Phase III clinical trials ENA 713 B352 and ENA 713 B351 are multicenter, double-blind, placebo-controlled, parallel-group study to examine the effect of rivastigmine in outpatients with probable AD. Both trials are conducted over a period of 26 weeks. ENA 713 B351 has 4 treatment arms with comprising of rivastigmine 3 mg/day, rivastigmine 6 mg/day, rivastigmine 9 mg/day or placebo. The initial dose-titration phase (Weeks 1-12) was followed by a fixed-dose phase (Week 13-26), for a total randomized double-blind treatment period of 26 weeks. ENA 713 B352 has 3 treatment arms with comprising of rivastigmine 1-4 mg/day, rivastigmine 6-12 mg/day, and placebo. The initial dose-titration phase (Weeks 1-7) was followed by a fixed-dose phase (Week 8-26), for a total randomized, double-blind treatment period of 26 weeks. The blood samples were handled by the Roskamp Institute, University of South Florida.
Individuals in the trial were classified as being responders if the final change from their baseline ADAS-COG scores is less than or equal to 4-points. A Fisher's Exact test was used to find an association between ApoE genotype and response.
Individuals in the trial were classified as being responders if the final change from their baseline ADAS-Cog scores is less than or equal to 0 points. A Fisher's Exact test was used to find an association between ApoE genotype and response.
Treatment differences in the ApoE ε4 and non-ApoE ε4 carriers were also analyzed. Treatment differences being measured as the 4-point decrease and the non-deterioration classes. An exact Cochran-Armitage test for trend is used to determine if the numbers of responders increase with dose of rivastigmine among each genotype group.
The trial population was divided into three groups based on the treatment they received. The three groups are placebo, rivastigmine <6 mg/day and rivastigmine ≧6 mg/day. All analyses were conducted within each group separately. The genotype data for the ApoE were re-coded for the presence or absence of the […]. The re-coded genotype data were used as the categorical variable.
A non-parametric analysis of variance (ANOVA) model was used for the analysis. Change from baseline in the ADAS-Cog score is used as the dependent variable.

[1] = rivastigmine <6 mg/day, No ε4 allele
[2] = rivastigmine <6 mg/day, ε4 allele carriers
[3] = rivastigmine ≧6 mg/day, No ε4 allele
[4] = rivastigmine ≧6 mg/day, No ε4 allele, listed as Rivastigmine
[5] = rivastigmine ≧6 mg/day, ε4 allele carriers

Question: `CCN(C)C(=O)Oc1cccc([C@H](C)N(C)C)c1` [rivastigmine] was tested. Which “response to treatment (non-deterioration, Table 7), share of individuals” value (ApoE ε4 carriers) did it give?
Answer: The value was 65%.

Question: And the “mean of change from baseline in ADAS-Cog score at end of study” value (“mean of change from baseline” below) (Rivastigmine <6 mg/day, No ε4 allele)?
Answer: The value was 1.444.

Question: What about the “mean of change from baseline” value (Rivastigmine <6 mg/day, ε4 allele) of the same molecule?
Answer: Its value is 1.293.

Question: And the “mean of change from baseline” value (Rivastigmine ≧6 mg/day, No ε4 allele, listed as Rivastigmine)?
Answer: Its value is 0.39.

Question: What about the “mean of change from baseline” value (Rivastigmine ≧6 mg/day, ε4 allele) of the same molecule?
Answer: Its value is −1.74.

Question: What about the “response to treatment (non-deterioration, Table 7), share of individuals” value (non-ApoE ε4 carriers) of the same molecule?
Answer: The value was 48.7%.

Question: And the “4-point improvement in the ADAS-Cog score (number of individuals)” value [1]?
Answer: The value was 4.

Question: What about the “Deterioration in the ADAS-Cog score (number of individuals)” value [1] of the same molecule?
Answer: Its value is 24.

Question: What about the “No 4-point improvement in the ADAS-Cog score (number of individuals)” value (“No 4-point improvement” for short) [1] of the same molecule?
Answer: Its value is 32.

Question: And the “Non-deterioration in the ADAS-Cog score (number of individuals)” value (from here on “Non-deterioration in the ADAS-Cog score”) [1]?
Answer: The value was 12.

Question: What about the “No 4-point improvement” value (rivastigmine <6 mg/day, No ε4 allele, listed as Rivastigmine) of the same molecule?
Answer: The value was 37.

Question: What about the “4-point improvement in the ADAS-Cog score (number of individuals)” value [2] of the same molecule?
Answer: Its value is 12.

Question: And the “Deterioration in the ADAS-Cog score (number of individuals)” value [2]?
Answer: The value was 63.

Question: And the “No 4-point improvement” value [2]?
Answer: The value was 83.

Question: And the “Non-deterioration in the ADAS-Cog score” value [2]?
Answer: The value was 32 and 12.

Question: And the “4-point improvement in the ADAS-Cog score (number of individuals)” value [3]?
Answer: Its value is 4.

Question: And the “Deterioration in the ADAS-Cog score (number of individuals)” value [3]?
Answer: The value was 21.

Question: And the “No 4-point improvement” value [3]?
Answer: The value was 37.

Question: And the “Non-deterioration in the ADAS-Cog score” value [3]?
Answer: Its value is 20.

Question: What about the “4-point improvement in the ADAS-Cog score (number of individuals)” value [4] of the same molecule?
Answer: The value was 26.

Question: And the “No 4-point improvement” value [4]?
Answer: The value was 54.

Question: And the “4-point improvement in the ADAS-Cog score (number of individuals)” value [5]?
Answer: The value was 26.

Question: And the “Deterioration in the ADAS-Cog score (number of individuals)” value [5]?
Answer: Its value is 28.

Question: What about the “No 4-point improvement” value [5] of the same molecule?
Answer: The value was 54.

Question: And the “Non-deterioration in the ADAS-Cog score” value [5]?
Answer: Its value is 52.
